Source: patent US6040335A, “Therapeutics for thrombocytopenia” (Suntory Limited, priority 1995, dated 2000)

How the values were obtained:
Mouse Platelet = Mouse Platelet Increasing Action (platelet count, electrical impedance method); format: in vivo, C57BL/6 mice; details: every 24 hr
Procedure: The measurement of platelet increasing activity can be implemented by the method described in Ishibashi, T. et al, Blood, 74(4):1241-1244, 1989 or modifications thereof. For example, an animal for platelet measurement such as mouse (e.g. C57BL/6 mouse), rat, dog or monkey is administered intraperitoneally with a test drug as dissolved in ethanolic physiological saline or dimethyl sulfoxide (hereunder sometimes referred to as DMSO) at a suitable concentration. The frequency of administration is usually once or twice a day for 5-10 continuous days; a blood sample is taken from the orbital venous plexus several hours after the final administration and the platelet count is determined. Administration may be performed by any methods including oral, intravenous, intramuscular and subcutaneous routes. The interval of administrations, their frequency and the number of days on which the administration is made are also variable with the drug under test. Platelet count can be determined by an electrical impedance method using a multi-channel automatic platelet counter (e.g., COULTER COUNTER Model JT of Coulter Corporation).
C57BL/6 mice (male, 7-week old) were administered intraperitoneally with the following compounds of the invention in 1% DMSO physiological saline or with 1% DMSO physiological saline alone (control) at 24-hr intervals for 5, 7 or 10 continuous days. Blood samples were collected 72-hr after the final administration in the case of 5-day administration, and 4-hr after the final administration in the case of 7 or 10-day administration, and the platelet count was determined by an electrical impedance method.

C57BL/6 mice = assay: Toxicity Test (intravenous, deaths); format: in vivo; details: 5 mg/kg intravenous
[1] = 0.03 mg/kg i.p., 5 days, blood 72 hr after final administration
[2] = 0.1 mg/kg i.p., 5 days, blood 72 hr after final administration
[3] = 1.0 mg/kg i.p., 5 days, blood 72 hr after final administration

SMILES	Platelet count (Mean ± S.E.) (Mouse Platelet; [1])	Platelet count (Mean ± S.E.) (Mouse Platelet; [2])	Platelet count (Mean ± S.E.) (Mouse Platelet; [3])	Platelet count (Mean ± S.E.) (Mouse Platelet; 0.03 mg/kg i.p., 7 days, blood 4 hr after final administration, control 1070 ± 152)	Platelet count (Mean ± S.E.) (Mouse Platelet; 0.1 mg/kg i.p., 7 days, blood 4 hr after final administration, control 1070 ± 152)	Platelet count (Mean ± S.E.) (Mouse Platelet; 0.1 mg/kg i.p., 10 days, blood 4 hr after final administration, control 985 ± 130)	Platelet count (Mean ± S.E.) (Mouse Platelet; 1.0 mg/kg i.p., 7 days, blood 4 hr after final administration, control 1070 ± 152)	Platelet count (Mean ± S.E.) (Mouse Platelet; 1.0 mg/kg i.p., 10 days, blood 4 hr after final administration, control 985 ± 130)	cases of death (C57BL/6 mice)
CCC1C=CC(=O)OC1/C=C/C(O)(CCN(CC)CC)C(CC(O)/C=C\C=C/C1CCCC(O)C1)OP(=O)(O)O (centres unmarked) [Example 7, 6-[3-(2-Diethylaminoethyl)-3,6-dihydroxy-10-(3-hydroxycyclohexyl)-4-(phosphonoxy)-1,7,9-decatrienyl]-5,6-dihydro-5-ethyl-2H-pyran-2-one]	1373 ± 76 × 10^3 /μl	1686 ± 226 × 10^3 /μl	1408 ± 427 × 10^3 /μl	–	–	–	–	–	–
CCCCCNCCC(O)(/C=C/C1OC(=O)C=CC1CC)C(CC(O)/C=C\C=C/C1CCCC(O)C1)OP(=O)(O)O (centres unmarked) [Example 12, 6-[3,6-Dihydroxy-10-(3-hydroxycyclohexyl)-3-(2-pentylaminoethyl)-4-(phosphonoxy)-1,7,9-decatrienyl]-5,6-dihydro-5-ethyl-2H-pyran-2-one]	1263 ± 99 × 10^3 /μl	1623 ± 192 × 10^3 /μl	1338 ± 236 × 10^3 /μl	–	–	–	–	–	–
CCC1C=CC(=O)OC1/C=C/C(O)(CCN(C)C)C(CC(O)/C=C\C=C/C1CCCC(O)C1)OP(=O)(O)O (centres unmarked) [Example 3, 6-[3,6-Dihydroxy-3-(2-dimethylaminoethyl)-10-(3-hydroxycyclohexyl)-4-(phosphonoxy)-1,7,9-decatrienyl]-5,6-dihydro-5-ethyl-2H-pyran-2-one]	–	–	–	1417 ± 159 × 10^3 /μl	1486 ± 314 × 10^3 /μl	1280 ± 260 × 10^3 /μl	1532 ± 137 × 10^3 /μl	1356 ± 156 × 10^3 /μl	no cases of death
CCC1C=CC(=O)OC1/C=C/C(O)(CC[N+](C)(C)C)C(CC(O)/C=C\C=C/C1CCCC(O)C1)OP(=O)(O)O (centres unmarked) [Example 23, 6-[3,6-Dihydroxy-10-(3-hydroxycyclohexyl)-4-(phosphonoxy)-3-(2-trimethylammoniumethyl)-1,7,9-decatrienyl]-5,6-dihydro-5-ethyl-2H-pyran-2-one]	–	1545 ± 294 × 10^3 /μl	1513 ± 425 × 10^3 /μl	–	–	–	–	–	–
CCC1C=CC(=O)OC1/C=C/C(O)(CCNC(C)C)C(CC(O)/C=C\C=C/C1CCCC(O)C1)OP(=O)(O)O (centres unmarked) [Example 9, 6-[3,6-Dihydroxy-10-(3-hydroxycyclohexyl)-3-(2-isopropylaminoethyl)-4-(phosphonoxy)-1,7,9-decatrienyl]-5,6-dihydro-5-ethyl-2H-pyran-2-one]	1433 ± 125 × 10^3 /μl	1818 ± 291 × 10^3 /μl	1465 ± 244 × 10^3 /μl	–	–	–	–	–	–
C=CCN(CC=C)CCC(O)(/C=C/C1OC(=O)C=CC1CC)C(CC(O)/C=C\C=C/C1CCCC(O)C1)OP(=O)(O)O (centres unmarked) [Example 25, 6-[3-(2-Diallylaminoethyl)-3,6-dihydroxy-10-(3-hydroxycyclohexyl)-4-(phosphonoxy)-1,7,9-decatrienyl]-5,6-dihydro-5-ethyl-2H-pyran-2-one]	1074 ± 182 × 10^3 /μl	1506 ± 209 × 10^3 /μl	1133 ± 170 × 10^3 /μl	–	–	–	–	–	–
CCC1C=CC(=O)OC1/C=C/C(O)(CCN(CCO)CCO)C(CC(O)/C=C\C=C/C1CCCC(O)C1)OP(=O)(O)O (centres unmarked) [Example 20, 6-[3-(2-Diethanolaminoethyl)-3,6-dihydroxy-10-(3-hydroxycyclohexyl)-4-(phosphonoxy)-1,7,9-decatrienyl]-5,6-dihydro-5-ethyl-2H-pyran-2-one]	1154 ± 138 × 10^3 /μl	1325 ± 104 × 10^3 /μl	1498 ± 192 × 10^3 /μl	–	–	–	–	–	–
CCC1C=CC(=O)OC1/C=C/C(O)(CCNC1CCCC1)C(CC(O)/C=C\C=C/C1CCCC(O)C1)OP(=O)(O)O (centres unmarked) [Example 13, 6-[3-(2-Cyclopentylaminoethyl)-3,6-dihydroxy-10-(3-hydroxycyclohexyl)-4-(phosphonoxy)-1,7,9-decatrienyl]-5,6-dihydro-5-ethyl-2H-pyran-2-one]	1490 ± 108 × 10^3 /μl	1765 ± 291 × 10^3 /μl	1313 ± 293 × 10^3 /μl	–	–	–	–	–	–
